Reference: paper PMC8469748, “A Method for Rapid Screening, Expression, and Purification of Antimicrobial Peptides” (Microorganisms, 2021)
Entries after “also recorded” stand apart in the source; their conditions may differ.

Assays:
E. coli DH5α = assay: Inhibition zone test (agarose plate, Oxford cup); assay type: cell-based
Protocol: To measure AMP activity, the agarose plate method was employed. Microorganisms for inhibition testing were activated, 3–5 single colonies were picked and placed in liquid LB medium, cultured on a shaker at 37 °C for 6 h. Solid LB medium was melted by heating, 500 μL of liquid bacterial culture was added for every 100 mL of medium after cooling slightly, and the mixture was poured into a bacterial plate to solidify. Oxford cups were inserted into the solidified mixed bacterial plate, while being careful not to penetrate the medium completely, so as not to affect the penetration of the test liquid on the plate. Attention was paid to the spacing between the Oxford cups. Corresponding Oxford cups were marked and positive/negative controls (100 μL each) were added. Plates were incubated at 37 °C overnight to observe the antibacterial effects.
The E. coli DH5α mixed bacteria plate was prepared as described above. Two negative controls (HRV 3C Cleavage Buffer and 1 M NaCl) and a positive control (2 mg/mL ampicillin) were included.

E. coli = assay: MIC test (96-well plate, OD600); assay type: cell-based; settings: for minimum concentration that inhibited an increase in the OD600 of the bacterial solution (MIC): 96-well plate, final 128 to 0.25 mg/L; for inhibition activity against testing microorganisms (MIC test): AMP expressed and purified in E. coli, up to 128 mg/L
Protocol: When measuring the minimum inhibitory concentration (MIC) of the expressed and purified AMPs, we performed the test according to the Clinical and Laboratory Standards Association. Specifically, microorganisms to be tested were activated, and five colonies were picked and separately cultured into liquid medium on a shaker (220 rpm) at 37 °C until the absorbance at 600 nm (OD600) reached 0.13–0.17; thus, corresponding to a biomass concentration of ~1 × 10^8 colony-forming units (CFU)/mL. Samples for testing were diluted to 4 mM, and two-fold serial dilutions were performed in a 96-well plate, with the concentration ranging from 100 to 0.195 μM. Each dilution (50 μL) was performed in duplicate. Next, 50 μL of microbial culture containing ~1 × 10^6 CFU/mL was added to each well. After incubating overnight at 37 °C, OD600 was measured using a microplate spectrophotometer.
Figure 8 The schematic diagram of a 96-well plate measuring MIC (data taken from three parallel experiments). Horizontal direction is AMP 1, 2, 6, 13, 16 test rows; Vertical direction 1–10 is the final concentration of 128 mg/L to 0.25 mg/L of these AMPs, respectively; 11 is the negative control; 12 is a positive control, the 20 mg/L ampicillin.
Figure 13B is a schematic diagram of the 96-well plate MIC experiment (data are from three parallel replicates). The horizontal direction is AMP13 from P. pastoris, the vertical direction is the final peptide concentration (128 mg/L to 0.25 mg/L), 11 is the negative control and 12 is the positive control (20 mg/L ampicillin).

[1] = AMP expressed in E. coli, two-fold dilutions, overnight 37 °C, three parallel experiments
[2] = AMP expressed in E. coli and purified, mixed bacteria LB agar plate, Oxford cup, 100 μL liquid per cup, 37 °C overnight

Row | Compound | Inhibition zone (E. coli DH5α; positive control, 2 mg/mL ampicillin, E. coli DH5α mixed bacteria plate, test of P. pastoris AMP13) | Inhibition zone (E. coli DH5α; positive control, ampicillin 200 mg/L, 100 μL per Oxford cup, plates of E. coli-derived AMPs) | minimum concentration that inhibited an increase in the OD600 of the bacterial solution (MIC) (E. coli; [1]) | Inhibition zone (E. coli DH5α; [2]) | MIC (E. coli; AMP13 from P. pastoris, equated from 16 mg/L) | minimum concentration that inhibited an increase in the OD600 of the bacterial solution (MIC) (E. coli; AMP13 produced by P. pastoris (PZEAP13), three parallel replicates) | effective MIC (E. coli; AMP13 purified from P. pastoris, discussion) | Inhibition zone (E. coli DH5α; AMP13 produced by P. pastoris (PZEAP13), E. coli DH5α mixed bacteria plate, Oxford cup, 100 μL) | inhibition activity against testing microorganisms (MIC test) (E. coli)
1 | CC1(C)S[C@@H]2[C@H](NC(=O)[C@H](N)c3ccccc3)C(=O)N2[C@H]1C(=O)O [ampicillin, reference compound] | there was an inhibition zone | there was an inhibition zone | – | – | – | – | – | – | –
2 | DSHAKRHHGYKRKFHEKHHSHRGY [AMP16, antimicrobial peptide selected from the AMP library website, expressed as CL7 fusion in E. coli and released by HRV 3C protease] | – | – | 64 µg/mL | there was an inhibition zone | – | – | – | – | –
3 | GFCRCLCRRGVCRCICTR [AMP13, antimicrobial peptide selected from the AMP library website, expressed as CL7 fusion in E. coli and in P. pastoris, released by HRV 3C protease] | – | – | 32 µg/mL | there was an inhibition zone | 8.1 µM | 16 µg/mL | 16 µg/mL | showed inhibition activity; also recorded: clear circle of inhibition | –
4 | ILPWKWPWWPWRR [AMP2, antimicrobial peptide selected from the AMP library website, expressed as CL7 fusion in E. coli and released by HRV 3C protease] | – | – | > 128 µg/mL | no inhibition zones | – | – | – | – | no inhibition activity; also recorded: did not exhibit detectable antibacterial activity
5 | ITPATPFTPAIITEITAAVIA [AMP1, antimicrobial peptide selected from the AMP library website, expressed as CL7 fusion in E. coli and released by HRV 3C protease] | – | – | 128 µg/mL | no inhibition zones | – | – | – | – | no inhibition activity; also recorded: did not exhibit detectable antibacterial activity
6 | VFQFLGKIIHHVGNFVHGFSHVF [AMP6, antimicrobial peptide selected from the AMP library website, expressed as CL7 fusion in E. coli and released by HRV 3C protease] | – | – | > 128 µg/mL | no inhibition zones | – | – | – | – | no inhibition activity; also recorded: did not exhibit detectable antibacterial activity
